Laboratory results as given in PubChem BioAssay (NCI).
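Assay format: 96-well plates, 48-hour exposure. Here, GI50 denotes the concentration required for 50% inhibition of growth. Definition used: TGI = concentration required for complete inhibition of growth.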

Key:
Test in all cases: NCI-60 cell line screen, 48 h
786-0 renal = test system: 786-0 renal
A498 renal = test system: A498 renal
A549 NSCLC = test system: A549 NSCLC
ACHN renal = test system: ACHN renal
BT-549 breast = test system: BT-549 breast
CAKI-1 renal = test system: CAKI-1 renal
CCRF-CEM leukemia = test system: CCRF-CEM leukemia
COLO 205 colon = test system: COLO 205 colon
DU-145 prostate = test system: DU-145 prostate
EKVX NSCLC = test system: EKVX NSCLC
HCC-2998 colon = test system: HCC-2998 colon
HCT-116 colon = test system: HCT-116 colon
HCT-15 colon = test system: HCT-15 colon
HOP-62 NSCLC = test system: HOP-62 NSCLC
HOP-92 NSCLC = test system: HOP-92 NSCLC
HS 578T breast = test system: HS 578T breast
HT29 colon = test system: HT29 colon
IGROV1 ovarian = test system: IGROV1 ovarian
K-562 leukemia = test system: K-562 leukemia
KM12 colon = test system: KM12 colon
LOX IMVI melanoma = test system: LOX IMVI melanoma
M14 melanoma = test system: M14 melanoma
MALME-3M melanoma = test system: MALME-3M melanoma
MCF7 breast = test system: MCF7 breast
MDA-MB-231 breast = test system: MDA-MB-231 breast
MDA-MB-435 = test system: MDA-MB-435
MOLT-4 leukemia = test system: MOLT-4 leukemia
NCI-H226 lung = test system: NCI-H226 lung
NCI-H23 lung = test system: NCI-H23 lung
NCI-H460 lung = test system: NCI-H460 lung
NCI-H522 lung = test system: NCI-H522 lung
NCI/ADR-RES ovarian = test system: NCI/ADR-RES ovarian
OVCAR-3 ovarian = test system: OVCAR-3 ovarian
OVCAR-4 ovarian = test system: OVCAR-4 ovarian
OVCAR-5 ovarian = test system: OVCAR-5 ovarian
OVCAR-8 ovarian = test system: OVCAR-8 ovarian
PC-3 prostate = test system: PC-3 prostate
RPMI-8226 leukemia = test system: RPMI-8226 leukemia
RXF 393 renal = test system: RXF 393 renal
SF-268 CNS = test system: SF-268 CNS
SF-539 CNS = test system: SF-539 CNS
SK-MEL-2 melanoma = test system: SK-MEL-2 melanoma
SK-MEL-28 melanoma = test system: SK-MEL-28 melanoma
SK-MEL-5 melanoma = test system: SK-MEL-5 melanoma
SK-OV-3 ovarian = test system: SK-OV-3 ovarian
SN12C renal = test system: SN12C renal
SNB-19 CNS = test system: SNB-19 CNS
SNB-75 CNS = test system: SNB-75 CNS
SR leukemia = test system: SR leukemia
SW-620 colon = test system: SW-620 colon
T-47D breast = test system: T-47D breast
TK-10 renal = test system: TK-10 renal
U251 CNS = test system: U251 CNS
UACC-257 melanoma = test system: UACC-257 melanoma
UACC-62 melanoma = test system: UACC-62 melanoma
UO-31 renal = test system: UO-31 renal

With `COc1ccn2c(C(C)=O)cc(C(=O)c3ccc4c(c3)Sc3ccccc3N4)c2c1` the GI50 (786-0 renal) was 145 nM, the TGI (786-0 renal) was 55100 nM and the GI50 (A498 renal) was 64 nM. It also gave a TGI (A498 renal) of 251 nM, a GI50 (A549 NSCLC) of 122 nM and a TGI (A549 NSCLC) greater than 100000 nM. For the same compound, the GI50 (ACHN renal) was 145 nM, the TGI (ACHN renal) was greater than 100000 nM and the GI50 (BT-549 breast) was 134 nM. For the same compound, the TGI (BT-549 breast) was greater than 100000 nM, the GI50 (CAKI-1 renal) was 52.7 nM and the TGI (CAKI-1 renal) was greater than 100000 nM. It also gave a GI50 (CCRF-CEM leukemia) of 135 nM, a TGI (CCRF-CEM leukemia) greater than 100000 nM and a GI50 (COLO 205 colon) of 72.4 nM. The TGI (COLO 205 colon) was 183 nM, the GI50 (DU-145 prostate) was 122 nM and the TGI (DU-145 prostate) was greater than 100000 nM. The GI50 (EKVX NSCLC) was 183 nM, the TGI (EKVX NSCLC) was greater than 100000 nM and the GI50 (HCC-2998 colon) was 155 nM. The TGI (HCC-2998 colon) was greater than 47800 nM, the GI50 (HCT-116 colon) was 67.4 nM and the TGI (HCT-116 colon) was 4930 nM. It also gave a GI50 (HCT-15 colon) of 98.2 nM, a GI50 (HOP-62 NSCLC) of 136 nM and a TGI (HOP-62 NSCLC) greater than 100000 nM. For the same compound, the TGI (HOP-92 NSCLC) was greater than 100000 nM, the GI50 (HS 578T breast) was 182 nM and the TGI (HS 578T breast) was greater than 100000 nM. It also gave a GI50 (HT29 colon) of 91.8 nM, a TGI (HT29 colon) of 351 nM and a GI50 (IGROV1 ovarian) of 164 nM. The TGI (IGROV1 ovarian) was greater than 100000 nM, the GI50 (K-562 leukemia) was 64.3 nM and the TGI (K-562 leukemia) was greater than 100000 nM. It also gave a GI50 (KM12 colon) of 87.4 nM, a TGI (KM12 colon) greater than 27300 nM and a GI50 (LOX IMVI melanoma) of 150 nM. For the same compound, the TGI (LOX IMVI melanoma) was greater than 100000 nM, the GI50 (M14 melanoma) was 85.3 nM and the TGI (M14 melanoma) was greater than 100000 nM. For the same compound, the GI50 (MALME-3M melanoma) was greater than 27800 nM, the TGI (MALME-3M melanoma) was greater than 100000 nM and the GI50 (MCF7 breast) was 89.3 nM. For the same compound, the TGI (MCF7 breast) was greater than 100000 nM, the GI50 (MDA-MB-231 breast) was 155 nM and the TGI (MDA-MB-231 breast) was 10600 nM. It also gave a GI50 (MDA-MB-435) of 19 nM, a TGI (MDA-MB-435) of 45.4 nM and a GI50 (MOLT-4 leukemia) of 155 nM. For the same compound, the TGI (MOLT-4 leukemia) was greater than 100000 nM, the GI50 (NCI-H226 lung) was 286 nM and the TGI (NCI-H226 lung) was greater than 100000 nM. It also gave a GI50 (NCI-H23 lung) of 136 nM, a TGI (NCI-H23 lung) greater than 100000 nM and a GI50 (NCI-H460 lung) of 113 nM. The TGI (NCI-H460 lung) was greater than 38000 nM, the GI50 (NCI-H522 lung) was 32.1 nM and the TGI (NCI-H522 lung) was 248 nM. For the same compound, the GI50 (NCI/ADR-RES ovarian) was 54.7 nM, the GI50 (OVCAR-3 ovarian) was 80.1 nM and the TGI (OVCAR-3 ovarian) was 206 nM. The TGI (OVCAR-4 ovarian) was greater than 100000 nM, the GI50 (OVCAR-5 ovarian) was 229 nM and the TGI (OVCAR-5 ovarian) was greater than 100000 nM. The GI50 (OVCAR-8 ovarian) was 140 nM, the TGI (OVCAR-8 ovarian) was greater than 100000 nM and the GI50 (PC-3 prostate) was 129 nM. It also gave a TGI (PC-3 prostate) greater than 100000 nM, a GI50 (RPMI-8226 leukemia) of 141 nM and a TGI (RPMI-8226 leukemia) greater than 100000 nM. The GI50 (RXF 393 renal) was 228 nM, the TGI (RXF 393 renal) was greater than 100000 nM and the GI50 (SF-268 CNS) was 141 nM. It also gave a TGI (SF-268 CNS) greater than 100000 nM, a GI50 (SF-539 CNS) of 65.4 nM and a TGI (SF-539 CNS) of 206 nM. It also gave a TGI (SK-MEL-2 melanoma) greater than 100000 nM, a GI50 (SK-MEL-28 melanoma) of 884 nM and a TGI (SK-MEL-28 melanoma) greater than 100000 nM. For the same compound, the GI50 (SK-MEL-5 melanoma) was 104 nM, the TGI (SK-MEL-5 melanoma) was 449 nM and the GI50 (SK-OV-3 ovarian) was 124 nM. It also gave a TGI (SK-OV-3 ovarian) greater than 23500 nM, a GI50 (SN12C renal) of 330 nM and a TGI (SN12C renal) greater than 100000 nM. For the same compound, the GI50 (SNB-19 CNS) was 158 nM, the TGI (SNB-19 CNS) was greater than 100000 nM and the GI50 (SNB-75 CNS) was 71.4 nM. For the same compound, the TGI (SNB-75 CNS) was greater than 100000 nM, the GI50 (SR leukemia) was 56.7 nM and the TGI (SR leukemia) was greater than 100000 nM. It also gave a GI50 (SW-620 colon) of 148 nM, a TGI (SW-620 colon) greater than 100000 nM and a GI50 (T-47D breast) of 44700 nM. For the same compound, the TGI (T-47D breast) was greater than 100000 nM, the GI50 (TK-10 renal) was 340 nM and the TGI (TK-10 renal) was greater than 100000 nM. The GI50 (U251 CNS) was 132 nM, the TGI (U251 CNS) was greater than 100000 nM and the GI50 (UACC-257 melanoma) was greater than 30600 nM. It also gave a TGI (UACC-257 melanoma) greater than 100000 nM, a GI50 (UACC-62 melanoma) of 89.4 nM and a TGI (UACC-62 melanoma) greater than 100000 nM. It also gave a GI50 (UO-31 renal) of 476 nM and a TGI (UO-31 renal) greater than 100000 nM.
